Reference: patent publication US12285392B2, “Method for modulating metabolism” (Brightseed, Inc., priority 2018, dated 2025)
Each block holds one molecule with its values, some of them ahead of it.

Columns and labels:
HNF4α [1] = molecular target: T1, HNF4α (Homo sapiens, UniProt P41235); experiment: Insulin promoter activity assay in T6PNE cells (HNF4α activity); format: cell-based; settings: for HNF4α modulation in screening: screening in the HNF4α assay
T1 construct: endogenous in cells; host or cells: T6PNE cells
T1 sequence (P41235 1-474): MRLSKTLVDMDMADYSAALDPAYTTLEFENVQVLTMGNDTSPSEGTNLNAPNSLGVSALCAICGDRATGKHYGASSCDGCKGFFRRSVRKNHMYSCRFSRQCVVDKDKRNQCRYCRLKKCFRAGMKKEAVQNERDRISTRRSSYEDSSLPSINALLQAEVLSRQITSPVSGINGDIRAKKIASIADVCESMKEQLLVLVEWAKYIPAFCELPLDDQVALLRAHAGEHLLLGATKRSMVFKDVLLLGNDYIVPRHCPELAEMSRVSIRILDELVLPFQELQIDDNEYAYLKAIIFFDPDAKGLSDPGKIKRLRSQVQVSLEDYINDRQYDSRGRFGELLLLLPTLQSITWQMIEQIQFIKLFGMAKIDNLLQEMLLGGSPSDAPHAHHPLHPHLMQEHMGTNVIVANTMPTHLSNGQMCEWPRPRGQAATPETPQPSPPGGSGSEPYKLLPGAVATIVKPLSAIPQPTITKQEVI
Method: Insulin Promoter Activity. T6PNE cells (Kiselyuk, et al. (2012) Chem Biol. 19(7):806-818; Kiselyuk, et al. (2010) J. Biomol. Screen 15(6):663-70) are seeded at 2000 cells per well in 384-well tissue culture plates in the presence of 1 μM tamoxifen and 0.03 mM palmitate. After a 24-hour incubation, a compound or extract of the invention is added to the cells. Forty-eight hours after compound or extract addition, cells are fixed in 4% paraformaldehyde and stained with DAPI. Blue (DAPI) and green (human insulin promoter driving GFP) channels are imaged.
Inhibition of HNF4α GFP Expression. Using the insulin promoter assay described herein, activity of HNF4α was assessed in the presence of BI-6015 (0, 2.5, 5 μM), a known antagonist of HNF4α (Kiselyuk, et al. (2012) Chem. Biol. 19(7):806-818), in combination with N-trans-caffeoyltyramine (0, 5, 10, 20 μM).
Given the role of HNF4α in maintaining a heal thy metabolism in humans, test compounds were screened for activity as HNF4α agonists (either direct or indirect effects). Using a known insulin promoter-reporter assay, Kiselyuk and colleagues (2010. J. Biomol. Screen 15(6):663-70), screened a library of compounds for activity to promote insulin activation. […] The OTC promoter is known to be responsive to HNF4α in transient transfection assays (Inoue, et al. (2002) J. Biol. Chem. 277:25257-65).

insulin mRNA = experiment: Insulin mRNA levels by quantitative PCR; format: cell-based; settings: FIG. 2
Method: (§1) Expression of Insulin and HNF4α. RNA was purified using a RNEASY® chromatographic separation and isolation kits (Qiagen), and converted to cDNA using the gScript™ cDNA SuperMix (Quanta Biosciences). Q-PCR was conducted with cDNA corresponding to 2 μg of RNA using an Opticon Real-Time System (MJ Research) and QPCR SuperMix (BioPioneer). See All mRNA values were normalized to 18S rRNA values and are expressed as fold changes over vehicle-treated control.

HNF4α mRNA = HNF4α mRNA levels by quantitative PCR; format: cell-based; settings: FIG. 3
Method: as §1

estrogenic activity = experiment: Counter-screen for estrogenic activity (E47MER luciferase reporter in HeLa cells); format: cell-based, human; settings: FIG. 5
Method: Counter-Screen for Estrogenic Activity. Estrogenic activity was monitored by co-transfection of a reporter plasmid containing a multimerized E-box 5′ of a minimal promoter fused to the Firefly luciferase gene (4RTK-luc) with wild-type E47 or E47MER (Kiselyuk, et al. (2010) J. Biomol. Screen 15(6):663-70). HeLa cells were transfected using polyethylenimine, 0.2 μg 4RTK-Luc plasmid and either 0.3 μg of human E47, E47MER or pMSCVhph vector in 50 μl of serum-free Dulbecco's modification of Eagle medium per well. Transfections included Renilla luciferase (pRL-TK) plasmid as a control for transfection efficacy. Transfection conditions were as described in the PPRE-Luc reporter assay of Kiselyuk, et al. ((2010) J. Biomol. Screen 15(6):663-70). Sixteen hours after transfection, culture media were changed and maintained for 48 hours with tamoxifen and/or compound or vehicle (DMSO). Cells were then lysed and assayed for luciferase activity using the Promega DUAL-LUCIFERASE® reporter assay kit (Promega Corp., Madison, WI), and luminescence was measured using the Veritas™ Microplate Luminometer (Turner Biosystems, Sunnyvale, CA). Data were normalized to Renilla luciferase (pRL-TK) and expressed as fold-change over vehicle alone.

[2] = Bioavailability determination in mice; format: in vivo; settings: mouse, whole blood, 30 mg/kg; male C57BL/6 mice
Method: Bioavailability Determinations.
An 8 μL aliquot of blood was used for analysis.

T6PNE cells = experiment: Lipid clearance in T6PNE cells (steatosis assay); format: cell-based; settings: 10 μM, 0.25 mM palmitate
Method: T6PNE cells were pretreated for 1 day with 0.06 mM, 0.12 mM or 0.25 mM palmitate at which time 15 μM N-trans-caffeoyltyramine or control (DMSO) was added. Cells were harvested on day 3, 6 and 8 and subjected to staining with Nile Red and Oil Red O. Results are expressed as fold change in Nile Red staining: +palmitate/10% FBS medium (no palmitate)
(§2) Lipid Clearance in HepG2 and T6PNE Cells (Steatosis Assay). The steatosis assay was carried out as described (Kiselyuk, et al. (2012) Chem. Biol. 19(7):806-818) with the exception of the drug concentration, which was 20 μM for N-trans-caffeoyltyramine with 0.25 mM palmitate in HepG2 cell lines, and 10 μM of either N-trans-caffeoyltyramine, N-trans-caffeoyltyramine, or pcoumaroyltyramine, with 0.25 mM palmitate in T6PNE cell lines. Steatosis was assessed using the Oil Red 0 Method for Fats kits (Poly Scientific; Warrington, PA), per manufacturer's guidelines. Briefly, frozen tissue slides or fixed cells were incubated in neat propylene glycol for 2 minutes and Oil Red 0 solution for 15 hours for slides or 1 hour for fixed cells, differentiated in 85% propylene glycol solution for 1 minute, washed twice with distilled water and stained in Hematoxylin of 10 seconds. Slides were mounted with glycerin jelly mounting medium.

pH stability assessment = format: physicochemical; settings: pH 2, 7.4, 8.5 and 10, 37° C., 0.5 and 72 hours
Method: pH Stability Assessment. Individual stock solutions were prepared in DMSO at concentrations of 10 mg/mL. Four different buffer solutions were prepared to achieve solutions with a pH of 2, 7.4, 8.5 and 10. For each pH assay, 5 μL of stock solution was added to 245 μL of buffered solution to a 2 mL tube, vortexed and incubated in a 37° C. water bath. At each timepoint, 50 μL aliquots were taken, neutralized and analyzed via HPLC analysis using a DAD detector at 280 nm. The fold change of the peak area at 280 nm was analyzed for the initial and final timepoint, 0.5 and 72 hours, respectively.

HepG2 cells = experiment: Lipid clearance in HepG2 cells (steatosis assay, Oil Red O); format: cell-based; settings: HepG2 liver cells, 20 μM
Method: as §2

HNF4α [3] = molecular target: T1, HNF4α; settings: Kiselyuk et al.; cited from earlier work
HNF4α [4] = molecular target: T1, HNF4α; settings: cited from earlier work

Effect on N-trans-caffeoyltyramine-mediated increases in insulin expression (HNF4α [1]; insulin promoter assay, BI-6015 0, 2.5, 5 μM, FIG. 4): inhibited
SMILES: Cc1ccc([N+](=O)[O-])cc1S(=O)(=O)n1c(C)nc2ccccc21 [BI-6015, reference compound]

HNF4α modulation in screening (HNF4α [1]): able to act as HNF4α modulators
SMILES: O=C(/C=C\c1ccc(O)c(O)c1)NCCc1ccc(O)cc1 [N-cis-caffeoyltyramine]

SMILES: O=C(/C=C/c1ccc(O)cc1)NCCc1ccc(O)c(O)c1 [N-coumaroyldopamine]
Insulin gene expression (insulin mRNA): inactive | HNF4α gene expression (HNF4α mRNA): inactive

bioavailability [2]: ~7% | pH Stability (pH stability assessment): Stable | HNF4α modulation in screening (HNF4α [1]): able to act as HNF4α modulators
SMILES: COc1cc(/C=C/C(=O)NCCc2ccc(O)cc2)ccc1O [N-trans-feruloyltyramine]
Estrogenic activity (estrogenic activity): did not exhibit estrogenic activity | Fat accumulation (T6PNE cells): inhibition of fat accumulation | Clearing of fats (Oil Red O staining) (HepG2 cells): capable of clearing harmful fats from the liver | Accumulation of fats (HepG2 cells; 0.25 mM palmitate): inhibited accumulation of fats | Insulin gene expression (insulin mRNA): upregulated | HNF4α gene expression (HNF4α mRNA): upregulated

SMILES: COc1cc(/C=C/C(=O)NCC(O)c2ccc(O)cc2)ccc1O (stereo not shown) [N-transferuloyloctopamine]
Insulin gene expression (insulin mRNA): inactive | HNF4α gene expression (HNF4α mRNA): inactive

SMILES: COc1cc(/C=C\C(=O)NCCc2ccc(O)cc2)ccc1O [cis-feruloyltyramine, reference compound]
Insulin gene expression (insulin mRNA): inactive | HNF4α gene expression (HNF4α mRNA): inactive

SMILES: CCN(CCCCc1ccccc1)CCc1ccccc1 [compound 1]
Insulin activation in insulin promoter-reporter screen (HNF4α [3]): insulin activator | HNF4α agonistic activity in OTC promoter assay (HNF4α [4]): possess HNF4α agonistic activity

SMILES: O=C(/C=C/c1ccc(O)cc1)NCC(O)c1ccc(O)cc1 (stereo not shown) [p-coumaroyloctopamine]
Insulin gene expression (insulin mRNA): inactive | HNF4α gene expression (HNF4α mRNA): inactive

pH Stability (pH stability assessment): Acid Stable
SMILES: O=C(/C=C/c1ccc(O)cc1)NCCc1ccc(O)cc1 [p-coumaroyltyramine]
